Test systems include EKVX; HCC 2998; HCT-116; HT-29; M14; MDA-MB-231; MDA-N; Malme-3M; NCI-H522; OVCAR-3; OVCAR-4; SF-295; SF-539; SK-MEL-5; SR; T47D; U-251; UACC-257; UACC-62; UO-31.
Common to all, as to assay: growth of human tumour cells (NCI), 48 h

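96-well plates; 48 h exposure; 5 concentrations. Endpoints by linear interpolation between flanking doses. Not reached: highest tested concentration assigned. GI50 = concentration required for 50% inhibition of growth.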 Activity calls are given as the source filed them. No stated cut-off is given here; in the data, active = GI50 up to about 1.1 µM and inactive = higher.

For `CCO/N=C\c1ccc2oc(-c3ccccc3)cc(=O)c2c1`, the GI50 with EKVX was 3.03 µM (inactive); in the test with HCC 2998, 0.31 µM (active); with HCT-116, 0.181 µM (active); in the test with HT-29, 0.0521 µM (active); in the test on M14, 0.172 µM (active); with MDA-MB-231 it was 0.557 µM (active). In addition, the GI50 with MDA-N was 0.0143 µM (active); in the test on Malme-3M it was 0.184 µM (active); in the test on NCI-H522, 0.0247 µM (active); in the test on OVCAR-3, 0.0778 µM (active); in the test on OVCAR-4, 5.51 µM (inactive); with SF-295, 0.191 µM (active). Further, the GI50 is 0.168 µM (active) in the test with SF-539; 0.146 µM (active) in the test on SK-MEL-5; < 0.0135 µM (active) with SR; 27.5 µM (inactive) in the test with T47D; 0.628 µM (active) in the test on U-251; 18.3 µM (inactive) in the test with UACC-257. Also, the GI50 in the test on UACC-62 is 0.194 µM (active); with UO-31, 0.394 µM (active).

On to `CC(=O)Oc1ccn2nc(C)c(Br)c2c1Br`, for which the GI50 in the test on EKVX was 29 µM (inactive); in the test on HCC 2998 it was 20.7 µM (inactive); in the test with HCT-116 it was 23 µM (inactive); with HT-29, 20.7 µM (inactive); in the test with M14, 18.9 µM (inactive); in the test on MDA-MB-231 it was 23 µM (inactive). Also, the GI50 was 17.6 µM (inactive) in the test on MDA-N; 22.4 µM (inactive) with Malme-3M; 17.6 µM (inactive) with NCI-H522; 17.6 µM (inactive) in the test with OVCAR-3; 16.8 µM (inactive) in the test with OVCAR-4; 30.5 µM (inactive) in the test with SF-295. The GI50 was 21.2 µM (inactive) with SF-539; 17.5 µM (inactive) in the test on SK-MEL-5; 40.9 µM (inactive) in the test with SR; 29.3 µM (inactive) in the test with T47D; 35.1 µM (inactive) in the test on U-251; 16.7 µM (inactive) with UACC-257. The GI50 was 17.7 µM (inactive) with UACC-62 and 4.6 µM (inactive) in the test with UO-31.

As for `CC(C)=CCC[C@@H](C)/C=C/C=C(\C)C(=O)CC[C@@H]1CC[N@+]2(C)CCCC[C@H]12`, the GI50 in the test with EKVX, in the test on HCC 2998, in the test with HCT-116, with M14, in the test on MDA-MB-231 and in the test on MDA-N was > 100 µM (inactive) in each case. Also, the GI50 with Malme-3M was 79.8 µM (inactive); in the test with NCI-H522 it was 35 µM (inactive); in the test with OVCAR-3 it was 32.9 µM (inactive); in the test on OVCAR-4, > 100 µM (inactive); in the test on SF-295, > 100 µM (inactive); in the test with SF-539, > 100 µM (inactive). Besides, the GI50 with SK-MEL-5 was > 100 µM (inactive); in the test with SR, > 100 µM (inactive); in the test with T47D, > 100 µM (inactive); in the test with U-251 it was 23.9 µM (inactive); in the test with UACC-257 it was > 100 µM (inactive); in the test with UACC-62, > 100 µM (inactive). The GI50 with UO-31 was > 100 µM (inactive).

As to `CC(=O)N1c2ccccc2C2=NN=C(N(C)C)SC21` (stereo not given), the GI50 was 2.75 µM (inactive) with EKVX; 2.72 µM (inactive) in the test with HCC 2998; 2.72 µM (inactive) with HCT-116; 4.86 µM (inactive) with HT-29; 1.84 µM (inactive) in the test with M14; 1.89 µM (inactive) in the test with MDA-MB-231. For the same compound, the GI50 was 3.33 µM (inactive) with MDA-N; 3.37 µM (inactive) with Malme-3M; 2.3 µM (inactive) with NCI-H522; 3.05 µM (inactive) in the test on OVCAR-3; 10.4 µM (inactive) with OVCAR-4; 2.41 µM (inactive) in the test on SF-295. For the same compound, the GI50 is 3.48 µM (inactive) in the test with SF-539; 3.28 µM (inactive) with SR; 3.52 µM (inactive) in the test on T47D; 1.67 µM (inactive) with U-251; 3.64 µM (inactive) in the test on UACC-257; 1.45 µM (inactive) in the test with UO-31.

`COc1ccc(C2CCc3c(cnc4nc(N)nc(N)c34)C2)cc1` (stereo not given): the GI50 with EKVX is 73.6 µM (inactive); with HCC 2998, 94.4 µM (inactive); in the test with HCT-116 it was 1.73 µM (inactive); with HT-29 it was 4.69 µM (inactive); in the test on M14, 1.49 µM (inactive); with MDA-MB-231, 40.5 µM (inactive). For the same compound, the GI50 in the test on MDA-N is 1.04 µM (active); in the test with Malme-3M, 18.9 µM (inactive); in the test with NCI-H522, 13.6 µM (inactive); in the test on OVCAR-3, 62.5 µM (inactive); in the test on OVCAR-4 it was > 100 µM (inactive); with SF-295, 7.26 µM (inactive). Moreover, the GI50 is 26.5 µM (inactive) with SF-539; 11 µM (inactive) in the test on SK-MEL-5; 8 µM (inactive) in the test with SR; 31 µM (inactive) with T47D; 9.29 µM (inactive) in the test on U-251; > 100 µM (inactive) in the test on UACC-257. In addition, the GI50 in the test on UACC-62 was 3.35 µM (inactive).

Consider `OC[C@H]1N[C@H](CO)[C@@H](O)[C@H]1O`, for which the GI50 in the test with EKVX, in the test with HCC 2998, in the test on HCT-116, with HT-29, with M14 and in the test on MDA-MB-231 was > 100 µM (inactive) each time. The GI50 in the test on MDA-N was > 10 µM (inactive); with Malme-3M, > 100 µM (inactive); in the test with NCI-H522 it was > 100 µM (inactive); in the test on SF-295, > 100 µM (inactive); in the test with SF-539, > 100 µM (inactive); in the test on SK-MEL-5, > 100 µM (inactive). Further, the GI50 in the test on SR, in the test with T47D, in the test on U-251, in the test on UACC-257, with UACC-62 and in the test on UO-31 was > 100 µM (inactive) throughout.

On to `O=C(O)Cn1ccc(=O)c2ccc([N+](=O)[O-])cc21`, for which the GI50 is > 100 µM (inactive) with HCC 2998; > 100 µM (inactive) in the test with HCT-116; > 100 µM (inactive) in the test on HT-29; > 100 µM (inactive) in the test with M14; 28.8 µM (inactive) in the test on MDA-MB-231; > 100 µM (inactive) in the test with MDA-N. Further, the GI50 in the test with Malme-3M, with NCI-H522, with OVCAR-3, in the test with SF-295, with SF-539 and with SK-MEL-5 was > 100 µM (inactive) in each case. The GI50 in the test with SR, in the test with T47D, with U-251, in the test on UACC-257, in the test with UACC-62 and with UO-31 was > 100 µM (inactive) in each case.

Regarding `COC(=O)c1ccccc1NC(=S)NN(C)C`, the GI50 with EKVX, with HCC 2998, in the test with HCT-116, in the test on M14, in the test with MDA-MB-231 and with MDA-N was > 100 µM (inactive) in each case. Moreover, the GI50 with Malme-3M, in the test on NCI-H522, with OVCAR-3, in the test on OVCAR-4, in the test with SF-295 and with SF-539 was > 100 µM (inactive) throughout. Also, the GI50 with SR, in the test with T47D, with U-251, in the test on UACC-257, in the test with UACC-62 and with UO-31 was > 100 µM (inactive) each time.

In the case of `CN1CCCC2C(c3ccccc3)C(C3=NCCCC3)C(c3ccccc3)CC21` (stereo not given), the GI50 with EKVX was 71 µM (inactive); with HCC 2998 it was 15.6 µM (inactive); in the test with HCT-116 it was 15.9 µM (inactive); with HT-29, 19.5 µM (inactive); in the test on M14, 20.7 µM (inactive); with MDA-MB-231, 51.2 µM (inactive). For the same compound, the GI50 in the test with MDA-N is 20.2 µM (inactive); with Malme-3M, 19.6 µM (inactive); in the test with NCI-H522 it was 17 µM (inactive); in the test with OVCAR-3, 35.6 µM (inactive); with OVCAR-4, 73.6 µM (inactive); with SF-295 it was 49.2 µM (inactive). The GI50 in the test on SF-539 is 16 µM (inactive); with SK-MEL-5 it was 16.9 µM (inactive); in the test on SR, 32.1 µM (inactive); with T47D, > 100 µM (inactive); in the test with U-251 it was 32.2 µM (inactive); in the test with UACC-257, 19.1 µM (inactive). For the same compound, the GI50 in the test on UACC-62 is 17.8 µM (inactive).

In the case of `O=S(=O)(O)c1ccc2cccc(/N=N\c3c(O)ccc4ccccc34)c2c1`, the GI50 with EKVX, with HCC 2998, in the test with HCT-116, in the test with M14, in the test with MDA-MB-231 and with MDA-N was > 100 µM (inactive) in each case. For the same compound, the GI50 in the test on Malme-3M, in the test with NCI-H522, with OVCAR-3, in the test on OVCAR-4, in the test on SF-295 and in the test with SF-539 was > 100 µM (inactive) each time. Moreover, the GI50 with SK-MEL-5, in the test with SR, in the test on T47D, in the test with U-251, in the test with UACC-257 and in the test with UACC-62 was > 100 µM (inactive) in each case. In the test with UO-31, the GI50 is > 100 µM (inactive).

Turning to `Cc1nc(N)c(N2CCN(C#N)CC2)c(O)n1`, the GI50 in the test on EKVX, in the test on HCC 2998, in the test with HCT-116, in the test on HT-29, in the test on M14 and in the test with MDA-MB-231 was > 100 µM (inactive) in each case. The GI50 in the test on MDA-N was > 100 µM (inactive); with Malme-3M, > 100 µM (inactive); with NCI-H522 it was > 100 µM (inactive); with OVCAR-3, 28.8 µM (inactive); in the test on SF-295, > 100 µM (inactive); with SF-539, > 100 µM (inactive). The GI50 in the test with SR, with T47D, in the test with U-251, in the test on UACC-257 and in the test with UO-31 was > 100 µM (inactive) each time.

These data come from ChEMBL document CHEMBL1201862, “PubChem BioAssay data set” (2004).
